Converted amounts (≈) assume the structure as drawn.
Columns and labels:
[1] = tested on: Proteus vulgaris IAM-1025; experiment: in vitro antimicrobial activity, two-fold agar-plate dilution method (MIC); type: cell-based; conditions: IAM1025, heart infusion agar, 37° C., 20 hours
Experimental: (§1) In vitro antimicrobial activity was determined by the two-fold agar-plate dilution method as described below.
(§2) One loopful of an overnight culture of each test strain in Tripticase-soy broth (approximately 10^8 viable cells per ml) was streaked on heart infusion agar (HI-agar) containing graded concentrations of antimicrobial agents, and the minimal inhibitory concentration (MIC) was expressed in term of μg/ml after incubation at 37° C. for 20 hours.

[2] = tested on: Pseudomonas aeruginosa NCTC-10490; experiment: as above; type: cell-based; conditions: NCTC10490, heart infusion agar, 37° C., 20 hours
Experimental: as §1, §2

## C#CCO/N=C(\C(=O)NC1C(=O)N2C(C(=O)O)=C(CSc3nncs3)CSC12)c1nc(N)sc1Cl (stereo not drawn) [Compound 2, 7-[2-(2-amino-5-chlorothiazol-4-yl)-2-propargyloxyiminoacetamido]-3-(1,3,4-thiadiazol-2-yl)thiomethyl-3-cephem-4-carboxylic acid (syn isomer)]
[1]
  MIC: 1.56 µg/mL (≈ 2.73 µM)
[2]
  MIC: 0.78 µg/mL (≈ 1.36 µM)

## Nc1nc(/C(=N/OC2C=CCC2)C(=O)NC2C(=O)N3C(C(=O)O)=C(CSc4nncs4)CSC23)c(Cl)s1 (stereo not drawn) [Compound 5, 7-[2-(2-amino-5-chlorothiazol-4-yl)-2-(2-cyclopenten-1-yl)oxyiminoacetamido]-3-(1,3,4-thiadiazol-2-yl)thiomethyl-3-cephem-4-carboxylic acid (syn isomer)]
[1]
  MIC: 0.39 µg/mL (≈ 0.65 µM)
[2]
  MIC: 0.39 µg/mL (≈ 0.65 µM)

## Nc1nc(/C(=N/OCC(=O)O)C(=O)NC2C(=O)N3C(C(=O)O)=C(Cl)CSC23)c(Cl)s1 (stereo not drawn) [Compound 6, 7-[2-(2-amino-5-chlorothiazol-4-yl)-2-carboxymethoxyiminoacetamido]-3-chloro-3-cephem-4-carboxylic acid (syn isomer)]
[1]
  MIC: 0.05 µg/mL (≈ 0.101 µM)
[2]
  MIC: 0.78 µg/mL (≈ 1.57 µM)

## Nc1nc(/C(=N/OCC(=O)O)C(=O)NC2C(=O)N3C(C(=O)O)=C(CSc4nncs4)CSC23)c(Cl)s1 (stereo not drawn) [Compound 3, 7-[2-(2-amino-5-chlorothiazol-4-yl)-2-carboxymethoxyiminoacetamido]-3-(1,3,4-thiadiazol-2-yl)thiomethyl-3-cephem-4-carboxylic acid (syn isomer)]
[1]
  MIC: 0.025 µg/mL (≈ 0.0422 µM)
[2]
  MIC: 0.78 µg/mL (≈ 1.32 µM)

## CC(O/N=C(\C(=O)NC1C(=O)N2C(C(=O)O)=CCSC12)c1nc(N)sc1Cl)C(=O)O (stereo not drawn) [Compound 1, 7-[2-(2-amino-5-chlorothiazol-4-yl)-2-(1-carboxyethoxyimino)acetamido]-3-cephem-4-carboxylic acid (syn isomer)]
[1]
  MIC: 0.05 µg/mL (≈ 0.105 µM)
[2]
  MIC: 0.78 µg/mL (≈ 1.64 µM)

## C=CCO/N=C(\C(=O)NC1C(=O)N2C(C(=O)O)=C(CSc3nncs3)CSC12)c1nc(N)sc1Cl (stereo not drawn) [Compound 4, 7-[2-(2-amino-5-chlorothiazol-4-yl)-2-allyloxyiminoacetamido]-3-(1,3,4-thiadiazol-2-yl)thiomethyl-3-cephem-4-carboxylic acid (syn isomer)]
[1]
  MIC: 1.56 µg/mL (≈ 2.72 µM)
[2]
  MIC: 0.78 µg/mL (≈ 1.36 µM)

From patent US4596829A, “7-acylaminocephalosporanic acid derivatives and processes for the preparation thereof” (Fujisawa Pharmaceutical Co., Ltd., priority 1980, dated 1986)
